{"source": "patent US20250281467A1", "about": "“MODULATORS OF INTRACELLULAR CHLORIDE CONCENTRATION FOR USE IN THE TREATMENT OF COGNITIVE DECLINE” (FONDAZIONE ISTITUTO ITALIANO DI TECNOLOGIA, priority 2022, published 2025)", "note": "pIC50: −log10 of the molar value.", "data": [{"molecular_target": "T1, KCC2 (Homo sapiens, UniProt Q9H2X9)", "T1 sequence (Q9H2X9 1-1139)": "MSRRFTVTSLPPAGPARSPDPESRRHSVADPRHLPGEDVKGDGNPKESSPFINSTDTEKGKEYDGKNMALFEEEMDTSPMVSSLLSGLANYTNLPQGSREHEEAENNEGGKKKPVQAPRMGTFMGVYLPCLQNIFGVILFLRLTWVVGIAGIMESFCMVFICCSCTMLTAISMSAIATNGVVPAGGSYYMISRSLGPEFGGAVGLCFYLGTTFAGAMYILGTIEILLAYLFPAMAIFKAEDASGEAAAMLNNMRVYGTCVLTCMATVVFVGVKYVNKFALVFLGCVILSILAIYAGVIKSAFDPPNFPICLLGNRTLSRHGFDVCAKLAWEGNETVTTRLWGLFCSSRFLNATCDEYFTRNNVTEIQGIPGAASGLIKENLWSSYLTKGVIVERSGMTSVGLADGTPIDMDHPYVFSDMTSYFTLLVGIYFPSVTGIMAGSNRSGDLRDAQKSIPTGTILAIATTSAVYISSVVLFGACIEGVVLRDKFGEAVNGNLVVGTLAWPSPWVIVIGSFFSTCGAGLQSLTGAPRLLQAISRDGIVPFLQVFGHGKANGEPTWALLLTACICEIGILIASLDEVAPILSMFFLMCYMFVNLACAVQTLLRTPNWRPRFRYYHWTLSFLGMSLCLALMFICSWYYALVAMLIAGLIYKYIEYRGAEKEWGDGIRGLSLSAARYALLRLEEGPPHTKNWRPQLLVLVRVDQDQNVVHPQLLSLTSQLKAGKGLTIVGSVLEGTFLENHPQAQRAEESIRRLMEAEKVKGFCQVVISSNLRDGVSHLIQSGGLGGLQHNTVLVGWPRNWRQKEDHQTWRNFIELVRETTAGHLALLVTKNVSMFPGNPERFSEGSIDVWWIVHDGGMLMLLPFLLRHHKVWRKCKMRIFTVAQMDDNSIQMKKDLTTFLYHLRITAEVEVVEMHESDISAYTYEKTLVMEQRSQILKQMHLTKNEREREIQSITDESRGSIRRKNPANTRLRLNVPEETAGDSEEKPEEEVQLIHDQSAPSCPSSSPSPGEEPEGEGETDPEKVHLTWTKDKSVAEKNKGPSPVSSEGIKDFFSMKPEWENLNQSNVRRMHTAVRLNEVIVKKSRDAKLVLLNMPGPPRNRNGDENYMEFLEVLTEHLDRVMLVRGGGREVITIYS", "test": "inhibitory activity measured in vitro on KCC2", "assay_type": "biochemical", "conditions": "IC50, in vitro on KCC2", "values": [{"smiles": "CC(=O)N1CCCC1(CC1CCCCC1)C(=O)OCc1ccccc1", "note": "(stereo not shown) [Compound 24]", "pIC50": 5.40}]}, {"molecular_target": "T1, KCC2", "test": "inhibitory activity measured in vitro on KCC2", "assay_type": "biochemical", "conditions": "in vitro on KCC2; read-out: IC50", "values": [{"smiles": "CC(=O)N1CCCC1(Cc1ccccc1)C(=O)OCc1ccccc1", "note": "(stereo not shown) [Compound 21]", "pIC50": 6.10}, {"smiles": "CC(=O)N1CCCC1(CCc1ccccc1)C(=O)OCc1ccccc1", "note": "(stereo not shown) [Compound 22]", "pIC50": 5.10}, {"smiles": "CCC1(C(=O)OCc2ccccc2)CCCN1C(C)=O", "note": "(stereo not shown) [Compound 23]", "pIC50": 5.64}, {"smiles": "CC(=O)N1CCCC1(Cc1ccncc1)C(=O)OCc1ccccc1", "note": "(stereo not shown) [Compound 25]", "pIC50": 5.70}, {"smiles": "CC(=O)N1CCCC1(Cc1ccsc1)C(=O)OCc1ccccc1", "note": "(stereo not shown) [Compound 26]", "pIC50": 6.10}, {"smiles": "CC(=O)N1CCCC1(Cc1ccc(C)cc1)C(=O)OCc1ccccc1", "note": "(stereo not shown) [Compound 27]", "pIC50": 6.10}, {"smiles": "COc1ccc(CC2(C(=O)OCc3ccccc3)CCCN2C(C)=O)cc1", "note": "(stereo not shown) [Compound 28]", "pIC50": 6.40}, {"smiles": "CC(=O)N1CCCC1(Cc1ccc(C(F)(F)F)cc1)C(=O)OCc1ccccc1", "note": "(stereo not shown) [Compound 29]", "pIC50": 6.20}, {"smiles": "CC(=O)N1CCCC1(Cc1ccc(F)cc1)C(=O)OCc1ccccc1", "note": "(stereo not shown) [Compound 30]", "pIC50": 6.70}, {"smiles": "CC(=O)N1CCCC1(Cc1ccc(Cl)cc1)C(=O)OCc1ccccc1", "note": "(stereo not shown) [Compound 31]", "pIC50": 6.49}, {"smiles": "CC(=O)N1CCCC1(Cc1ccc(S(C)(=O)=O)cc1)C(=O)OCc1ccccc1", "note": "(stereo not shown) [Compound 32]", "pIC50": 6.00}, {"smiles": "CC(=O)N1CCCC1(Cc1ccc(C#N)cc1)C(=O)OCc1ccccc1", "note": "(stereo not shown) [Compound 33]", "pIC50": 6.80}, {"smiles": "CC(=O)N1CCCC1(Cc1cccc(C#N)c1)C(=O)OCc1ccccc1", "note": "(stereo not shown) [Compound 34]", "pIC50": 6.49}, {"smiles": "CC(=O)N1CCCC1(Cc1ccccc1C#N)C(=O)OCc1ccccc1", "note": "(stereo not shown) [Compound 35]", "pIC50": 5.30}, {"smiles": "CC(=O)N1CCCC1(Cc1cccc(S(C)(=O)=O)c1)C(=O)OCc1ccccc1", "note": "(stereo not shown) [Compound 36]", "pIC50": 6.60}, {"smiles": "CC(=O)N1CCCC1(Cc1cccc(C(F)(F)F)c1)C(=O)OCc1ccccc1", "note": "(stereo not shown) [Compound 37]", "pIC50": 7.10}, {"smiles": "CC(=O)N1CCCC1(Cc1ccc(F)c(C(F)(F)F)c1)C(=O)OCc1ccccc1", "note": "(stereo not shown) [Compound 38]", "pIC50": 7.22}, {"smiles": "COc1ccc(CC2(C(=O)OCc3ccccc3)CCCN2C(C)=O)cc1C(F)(F)F", "note": "(stereo not shown) [Compound 39]", "pIC50": 7.30}, {"smiles": "CC(=O)N1CCCC1(Cc1ccc(F)cc1C(F)(F)F)C(=O)OCc1ccccc1", "note": "(stereo not shown) [Compound 40]", "pIC50": 5.40}, {"smiles": "CC(=O)N1CCCC1(Cc1ccccc1)C(=O)NCc1ccccc1", "note": "(stereo not shown) [Compound 41]", "pIC50": 4.00}, {"smiles": "CC(=O)N1CCCC1(Cc1ccccc1)C(=O)N(C)Cc1ccccc1", "note": "(stereo not shown) [Compound 42]", "pIC50": 4.49}, {"smiles": "CC(=O)N1CCCC1(Cc1ccccc1)C(=O)O", "note": "(stereo not shown) [Compound 43]", "pIC50": "< 4.00"}, {"smiles": "COC(=O)C1(Cc2ccccc2)CCCN1C(C)=O", "note": "(stereo not shown) [Compound 44]", "pIC50": "< 4.00"}, {"smiles": "CC(=O)N1CCCC1(Cc1ccccc1)C(=O)OC(C)c1ccccc1", "note": "(stereo not shown) [Compound 45]", "pIC50": 5.40}, {"smiles": "CC(=O)N1CCCC1(Cc1ccccc1)C(=O)OCCc1ccccc1", "note": "(stereo not shown) [Compound 46]", "pIC50": 5.00}, {"smiles": "CC(=O)N1CCCC1(Cc1ccccc1)C(=O)OCC1CCCCC1", "note": "(stereo not shown) [Compound 47]", "pIC50": 4.20}, {"smiles": "CC(=O)N1CCCC1(Cc1ccccc1)C(=O)OCc1ccncc1", "note": "(stereo not shown) [Compound 48]", "pIC50": "< 4.00"}, {"smiles": "CC(=O)N1CCCC1(Cc1ccccc1)C(=O)OCc1ccccc1Cl", "note": "(stereo not shown) [Compound 49]", "pIC50": 5.22}, {"smiles": "CC(=O)N1CCCC1(Cc1ccccc1)C(=O)OCc1cccc(Cl)c1", "note": "(stereo not shown) [Compound 50]", "pIC50": 5.60}, {"smiles": "CC(=O)N1CCCC1(Cc1ccccc1)C(=O)OCc1ccc(Cl)cc1", "note": "(stereo not shown) [Compound 51]", "pIC50": 5.89}, {"smiles": "CC(=O)N1CCCC1(Cc1ccccc1)C(=O)OCc1ccc(C)cc1", "note": "(stereo not shown) [Compound 52]", "pIC50": 6.10}, {"smiles": "CC(=O)N1CCCC1(Cc1ccccc1)C(=O)OCc1ccc(C(F)(F)F)cc1", "note": "(stereo not shown) [Compound 53]", "pIC50": 5.30}, {"smiles": "CC(=O)N1CCCC1(Cc1ccccc1)C(=O)OCc1ccc(S(C)(=O)=O)cc1", "note": "(stereo not shown) [Compound 54]", "pIC50": "< 4.00"}, {"smiles": "O=C(OCc1ccccc1)C1(Cc2ccccc2)CCCN1", "note": "(stereo not shown) [Compound 55]", "pIC50": "< 4.00"}, {"smiles": "CCN1CCCC1(Cc1ccccc1)C(=O)OCc1ccccc1", "note": "(stereo not shown) [Compound 56]", "pIC50": "< 4.00"}, {"smiles": "CS(=O)(=O)N1CCCC1(Cc1ccccc1)C(=O)OCc1ccccc1", "note": "(stereo not shown) [Compound 57]", "pIC50": 5.80}, {"smiles": "COC(=O)N1CCCC1(Cc1ccccc1)C(=O)OCc1ccccc1", "note": "(stereo not shown) [Compound 58]", "pIC50": 6.40}, {"smiles": "CCNC(=O)N1CCCC1(Cc1ccccc1)C(=O)OCc1ccccc1", "note": "(stereo not shown) [Compound 59]", "pIC50": 5.70}, {"smiles": "CCC(=O)N1CCCC1(Cc1ccccc1)C(=O)OCc1ccccc1", "note": "(stereo not shown) [Compound 60]", "pIC50": 5.92}, {"smiles": "O=C(C1CC1)N1CCCC1(Cc1ccccc1)C(=O)OCc1ccccc1", "note": "(stereo not shown) [Compound 61]", "pIC50": 6.49}, {"smiles": "O=C(c1ccccc1)N1CCCC1(Cc1ccccc1)C(=O)OCc1ccccc1", "note": "(stereo not shown) [Compound 62]", "pIC50": 5.40}, {"smiles": "CC(=O)N1CCCC1(Cc1ccccc1)C(=O)CCc1ccccc1", "note": "(stereo not shown) [Compound 63]", "pIC50": 6.52}, {"smiles": "CC(=O)N1CCCC1(Cc1ccc(F)cc1)C(=O)CCc1ccc(F)cc1", "note": "(stereo not shown) [Compound 64]", "pIC50": 6.70}, {"smiles": "CC(=O)N1c2ccccc2CC1(Cc1ccccc1)C(=O)OCc1ccccc1", "note": "(stereo not shown) [Compound 65]", "pIC50": 6.70}, {"smiles": "CC(=O)N1CCCC1(Cc1ccccc1)C(=O)OCc1ccccc1", "note": "(stereo not shown) [Compound 66]", "pIC50": 4.70}, {"smiles": "CC(=O)N1CCCC1(Cc1ccccc1)C1=N[C@H](c2ccccc2)CO1", "note": "(stereo partly shown) [Compound 67]", "pIC50": 5.89}, {"smiles": "CC(=O)N1CCCC1(Cc1ccccc1)c1nc(-c2ccccc2)co1", "note": "(stereo not shown) [Compound 68]", "pIC50": 4.90}, {"smiles": "O=C1CCCC2CCC(Cc3ccccc3)(C(=O)OCc3ccccc3)N12", "note": "(stereo not shown) [Compound 69]", "pIC50": 6.00}]}, {"tested_on": "mice C57BL/6J aged >24 months", "test": "open field test after diazepam in elderly and young mice", "assay_type": "in vivo", "conditions": "elderly mice (>24 months), diazepam 2 mg/kg, compared to elderly mice treated with vehicle or young mice treated with diazepam", "source_text": "FIG. 2 illustrates the evaluation of the effect of benzodiazepines in elderly mice which is indicative of a potentiated GABAergic transmission. a) Quantification of the immobility time during the open field test of mice treated with vehicle (young, n=7, elderly, n=6) or diazepam (young, n=7, elderly, n=7) (two-way ANOVA, Tukey post hoc test, *** P<0.001). b) Quantification of the distance travelled during the open field test by mice treated with vehicle (young, n=7, elderly, n=6) or diazepam (young, n=7, elderly, n=7) (two-way ANOVA, Tukey post hoc test, ** P<0.01, *** P<0.001).\nIn fact, benzodiazepines are positive allosteric modulators of GABAAR. Benzodiazepines are commonly used as anxiolytic drugs, but can produce anxiogenic or highly sedative effects depending on the polarity of GABAergic transmission. To test the reaction of elderly mice to benzodiazepines, mice C57BL/6J aged >24 months and 2-month old controls C57BL/6J were treated with diazepam (2 mg/kg in saline solution) or vehicle (2% DMSO in saline solution). The open field test was then carried out to evaluate locomotor activity and the level of anxiety of the mice tested. […] This is indicative of an over-sedation reaction of the diazepam in the elderly mice, which may reflect the presence of hyper-inhibitory GABAergic transmission. This evidence is in accordance with the up-regulation of KCC2 (FIG. 1b).", "values": [{"smiles": "CN1C(=O)CN=C(c2ccccc2)c2cc(Cl)ccc21", "note": "[diazepam]", "distance travelled during the open field test": "significantly lower", "immobility time during the open field test": "significantly higher"}]}, {"tested_on": "elderly mice", "test": "novel object recognition (NOR) test in elderly mice", "assay_type": "in vivo", "conditions": "1 mg/kg i.p., versus vehicle", "source_text": "FIG. 3 illustrates the evaluation of the efficacy of compound 32 (KCC2 inhibitor) to restore impaired memory in elderly mice. a) Quantification of the discrimination index of the NOR test in young (n=13) and elderly (n=10) mice (two tailed t-test, ** P<0.01). b) Quantification of the discrimination index of the NOR test in mice treated with vehicle (young, n=12, elderly, n=9) or compound 32 (young, n=10, elderly, n=6) (two-way ANOVA, Tukey post hoc test, ** P<0.01, ** P<0.001).\nTo evaluate memory capacity in the elderly mice, the novel object recognition (NOR) test was conducted. This test evaluates the long-term object recognition memory by measuring the capacity of the mice to recognize a novel object compared to familiar objects. […] Subsequently, to test the ability of the non-selective KCC2 inhibitor, Compound 32, to restore poor memory, the NOR test was conducted in the presence of the drug. The mice were treated with compound 32 (1 mg/kg i.p.) or with the vehicle.", "values": [{"smiles": "CC(=O)N1CCCC1(Cc1ccc(S(C)(=O)=O)cc1)C(=O)OCc1ccccc1", "note": "(stereo not shown) [Compound 32]", "object recognition memory (discrimination index of the NOR test)": "significantly restored"}]}]}
